# Data from US10206398B2, “Five-membered C-N-attached aryl sulphide and aryl sulphoxide derivatives as pesticides” (BAYER CROPSCIENCE AKTIENGESELLSCHAFT, priority 2014, dated 2019).
# Where “and” joins values, the source holds several entries; their conditions need not be identical. Equal entries are not always repeated. Where two headings read alike, the source gives them in different places.
# Tests used:
# [1] = log P determination by HPLC on reversed-phase columns (C 18), analogous to OECD Guideline 117; format: physicochemical; details: for logP[a]: method [a]; for logP[b]: method [b]; for chromatographic logP: reversed-phase HPLC column (C 18)
# Method: The log P values were determined analogously to OECD Guideline 117 (EC Directive 92/69/EEC) by HPLC (high-performance liquid chromatography) using reversed-phase columns (C 18), by the following methods: [a] The LC-MS determination in the acidic range was effected at pH 2.7 with 0.1% aqueous formic acid and acetonitrile (contains 0.1% formic acid) as eluents; linear gradient from 10% acetonitrile to 95% acetonitrile. log P[a] is also referred to as log P(HCOOH). [b] LC-MS determination in the neutral range was effected at pH 7.8 with 0.001 molar aqueous ammonium hydrogencarbonate solution and acetonitrile as eluents; linear gradient from 10% acetonitrile to 95% acetonitrile. log P[b] is also referred to as log P(neutral). Calibration is effected with solutions of a homologous series of unbranched alkan-2-ones (having 3 to 16 carbon atoms) with known log P values (log P values determined on the basis of the retention times by linear interpolation between two successive alkanones).
# [2] = test system: Meloidogyne incognita; test: Meloidogyne incognita - test; format: in vivo; details: 20 ppm, lettuce, after 14 days
# Method: 2. Meloidogyne incognita—Test Solvent: 125.0 parts by weight of acetone To produce a suitable preparation of active compound, 1 part by weight of active compound is mixed with the stated amount of solvent and the concentrate is diluted with water to the desired concentration. Vessels are filled with sand, active compound solution, an egg/larvae suspension of the southern root-knot nematode (Meloidogyne incognita) and lettuce seeds. The lettuce seeds germinate and the plants develop. The galls develop on the roots. After 14 days, the nematicidal efficacy in % is determined by the formation of galls. 100% means that no galls were found; 0% means that the number of galls on the treated plants corresponds to the untreated control.
# [3] = test system: Tetranychus urticae; test: Tetranychus urticae - spray test, OP-resistant (bean leaf discs, 6 days); format: in vivo; details: after 6 days; for pest or weed control at 500 g/ha: Tetranychus urticae, foliar, 144 h, read-out: efficacy (spider mites killed)
# Method: 5. Tetranychus urticae—Spray Test, OP-Resistant
# Solvent: 78.0 parts by weight of acetone
# • 1.5 parts by weight of dimethylformamide Emulsifier: alkylaryl polyglycol ether
# To produce a suitable preparation of active compound, 1 part by weight of active compound is dissolved using the stated parts by weight of solvent and made up with water containing an emulsifier concentration of 1000 ppm until the desired concentration is attained. To produce further test concentrations, the preparation is diluted with emulsifier-containing water.
# Discs of bean leaves (Phaseolus vulgaris) infested with all stages of the greenhouse red spider mite (Tetranychus urticae) are sprayed with an active compound preparation of the desired concentration.
# After 6 days, the efficacy in % is determined. 100% means that all the spider mites have been killed; 0% means that no spider mites have been killed.
# [4] = pH 2.7, HPLC, acidic range, pH 2.7, 0.1% aqueous formic acid and acetonitrile, read-out: log P(HCOOH)
# [5] = pH 2.7, method [a], read-out: logP[a]
# [6] = pH 7.8, HPLC, neutral range, pH 7.8, 0.001 molar aqueous ammonium hydrogencarbonate and acetonitrile, read-out: log P(neutral)
# [7] = pH 7.8, method [b], read-out: logP[b]
SMILES,logP[a] [1],logP[b] [1],nematicidal efficacy (formation of galls) [2],efficacy (spider mites killed) ([3]; 500 g/ha),other results
Cc1cc(F)c(N2C(=O)CN(C(=O)N(C)CC(C)C)C2=O)cc1[S+]([O-])CC(F)(F)F (stereo not shown) [compound 126],2.6,2.66,100%,100%,–
"Cc1cc(F)c(N2C(=O)CN(C(=O)N3CCOCC3)C2=O)cc1[S+]([O-])CC(F)(F)F (stereo not shown) [Ex. No. 125, 3-[2-Fluoro-4-methyl-5-(2,2,2-trifluoroethylsulphinyl)phenyl]-1-(morpholine-4-carbonyl)imidazolidine-2,4-dione]",–,–,100%,–,"chromatographic logP [1, 4]: 1.79; chromatographic logP [1, 5]: 1.75; chromatographic logP [1, 6]: 1.75; chromatographic logP [1, 7]: 1.79; pest or weed control at 500 g/ha ([3]; 500 g/ha): 100%"
"Cc1cc(F)c(N2C(=O)CN(C(=O)N3CCOCC3)C2=O)cc1SCC(F)(F)F [Ex. No. 122, 3-[2-Fluoro-4-methyl-5-(2,2,2-trifluoroethylsulphanyl)phenyl]-1-(morpholine-4-carbonyl)imidazolidine-2,4-dione]",–,–,90%,–,"chromatographic logP [1, 4]: 2.61; chromatographic logP [1, 5]: 2.58; chromatographic logP [1, 6]: 2.58; chromatographic logP [1, 7]: 2.62; pest or weed control at 500 g/ha ([3]; 500 g/ha): 100%"
Cc1cc(F)c(N2C(=O)CN(C(=O)N3CCS(=O)(=O)CC3)C2=O)cc1SCC(F)(F)F [compound 128],2.4,2.44,100%,–,–
Cc1cc(F)c(N2C(=O)CN(C(=O)N3CCC(F)(F)CC3)C2=O)cc1SCC(F)(F)F [compound 129],3.27,3.29,100%,100%,–
"Cc1cc(F)c(N2C(=O)CN(C(=O)NC3CC3)C2=S)cc1[S+]([O-])CC(F)(F)F (stereo not shown) [Ex. No. 4, N-Cyclopropyl-3-[2-fluoro-4-methyl-5-(2,2,2-trifluoroethylsulphinyl)phenyl]-4-oxo-2-thioxoimidazolidine-1-carboxamide]",–,–,–,–,"chromatographic logP [1, 4]: 2.64; chromatographic logP [1, 5]: 2.64; chromatographic logP [1, 6]: 2.65; chromatographic logP [1, 7]: 2.65; pest or weed control at 500 g/ha ([3]; 500 g/ha): 100%"
O=C(NC1CC1)N1CC(=O)N(c2cc([S+]([O-])CC(F)(F)F)c(Cl)cc2Cl)C1=O (racemic) [compound 112],2.61,2.65,–,100%,–
Cc1cc(F)c(N2C(=O)CNC2=O)cc1SCC(F)(F)F [IIa-1],–,–,–,–,"chromatographic logP [1, 4]: 2.11; chromatographic logP ([1]; pH 2.7, Table 3, HPLC, acidic range, pH 2.7, read-out: logP[a]): 2.11; chromatographic logP [1, 6]: 2.08; chromatographic logP ([1]; pH 7.8, Table 3, HPLC, neutral range, pH 7.8, read-out: logP[b]): 2.08; pest or weed control at 500 g/ha ([3]; 500 g/ha): 90%"
O=C(Nc1cccc(C(F)(F)F)c1)N1CC(=O)N(c2cc([S+]([O-])CC(F)(F)F)c(Cl)cc2Cl)C1=O (racemic) [compound 120],3.92,4.02,–,100%,–
Cc1cc(F)c(N2C(=O)CN(C(=O)NCC(C)C)C2=S)cc1[S+]([O-])CC(F)(F)F (stereo not shown) [Ex. No. 13],3.33,3.24,–,90%,–
Cc1cc(F)c(N2C(=O)CN(C(=O)N(C)C3CC3)C2=O)cc1[S+]([O-])CC(F)(F)F (stereo not shown) [compound 131],2.08,2.16,100%,100%,–
Cc1cc(F)c(N2C(=O)C(C)N(C(=O)NC3CC3)C2=O)cc1SCC(F)(F)F (stereo not shown) [compound 25],3.43,3.35,–,100%,–
Cc1cc(F)c(N2C(=O)CN(C(=O)N3CCC(F)(F)CC3)C2=O)cc1[S+]([O-])CC(F)(F)F (stereo not shown) [compound 132],2.41,2.46,100%,90%,–
"Cc1cc(F)c(N2C(=O)N(C(=O)NC3CC3)C(C)(C)C2=O)cc1SCC(F)(F)F [Ex. No. 74, N-Cyclopropyl-3-[2-fluoro-4-methyl-5-(2,2,2-trifluoroethylsulphanyl)phenyl]-5,5-dimethyl-2,4-dioxoimidazolidine-1-carboxamide]",–,–,–,–,"chromatographic logP [1, 4]: 3.76; chromatographic logP [1, 5]: 3.76; chromatographic logP [1, 6]: 3.72; chromatographic logP [1, 7]: 3.72; pest or weed control at 500 g/ha ([3]; 500 g/ha): 100%"

# Second part, led by results:
logP[a] [1],logP[b] [1],SMILES,nematicidal efficacy (formation of galls) [2],efficacy (spider mites killed) ([3]; 500 g/ha),other results
4.09,4.20,O=C(Nc1ccc(F)cc1)N1CC(=O)N(c2cc(SCC(F)(F)F)c(Cl)cc2Cl)C1=O [compound 108],90%,100%,–
2.99,3.03,Cc1cc(F)c(N2C(=O)CN(C(=O)N(C)C3CC3)C2=O)cc1SCC(F)(F)F [compound 121],90%,100%,–
2.58,2.60,Cc1cc(F)c(N2C(=O)CN(C(=O)N(C)C)C2=O)cc1SCC(F)(F)F [compound 130],100%,100% and 90%,–
3.25,3.26,CCNC(=O)N1CC(=O)N(c2cc(SCC(F)(F)F)c(Cl)cc2Cl)C1=O [compound 103],90%,90%,–
3.37,3.29,Cc1cc(F)c(N2C(=O)CN(C(=O)Nc3ccccn3)C2=O)cc1SCC(F)(F)F [compound 78],100%,100%,–
4.37,4.33,Cc1cc(F)c(N2C(=O)N(C(=O)NCc3ccccc3)C(C)(C)C2=O)cc1SCC(F)(F)F [compound 77],–,100%,–
2.89,2.83,Cc1cc(F)c(N2C(=O)CN(C(=O)Nc3ccccc3)C2=O)cc1[S+]([O-])CC(F)(F)F (stereo not shown) [compound 19],–,90%,–
2.95,2.88,Cc1cc(Cl)c(N2C(=O)CN(C(=O)NCC(C)C)C2=O)cc1[S+]([O-])CC(F)(F)F (racemic) [compound 65],–,–,efficacy (spider mites killed) ([3]; 100 g/ha): 90%
1.36,2.81,Cc1cc(C)c(N2C(=O)CN(C(=O)NC3CC3)C2=O)cc1SCC(F)(F)F [compound 49],–,100%,–
4.05,3.96,Cc1cc(Cl)c(N2C(=O)CN(C(=O)Nc3ccc(F)cc3)C2=O)cc1SCC(F)(F)F [compound 94],–,100%,–
2.99,2.98,Cc1cc(F)c(N2C(=O)CN(C(=O)NCC3CCCO3)C2=O)cc1SCC(F)(F)F (racemic) [compound 67],–,100%,–
3.48,3.38,Cc1cc(C)c(N2C(=O)CN(C(=O)NC(C)C)C2=O)cc1SCC(F)(F)F [compound 22],–,100%,–
3.81,3.61,Cc1cc(Cl)c(N2C(=O)CN(C(=O)NCc3ccccc3)C2=O)cc1SCC(F)(F)F [compound 57],–,100%,–
3.82,3.71,Cc1cc(F)c(N2C(=O)CN(C(=O)Nc3ccccc3)C2=O)cc1SCC(F)(F)F [compound 16],–,100%,–
1.51,1.98,Cc1cc(F)c(N2C(=O)CN(C(=O)Nc3cccnc3)C2=O)cc1[S+]([O-])CC(F)(F)F (stereo not shown) [compound 20],100%,100%,–
2.56,2.59,CCNC(=O)N1CC(=O)N(c2cc([S+]([O-])CC(F)(F)F)c(Cl)cc2Cl)C1=O (racemic) [compound 111],–,100%,–
3.94,3.91,Cc1cc(F)c(N2C(=O)C(C)N(C(=O)NCc3ccccc3)C2=O)cc1SCC(F)(F)F (racemic) [compound 81],–,100%,–
